Measured values taken from paper PMC4453016, “Novel Bifunctional Cyclic Chelator for ^89Zr Labeling–Radiolabeling and Targeting Properties of RGD Conjugates” (Molecular Pharmaceutics, 2015).
Where “and” joins values, the source holds several entries; their conditions need not be identical. Identical values can stand only once.

Key:
[1] = Stability assay in 1000-fold molar excess of EDTA solution (ITLC); assay type: physicochemical; conditions: for transchelation in EDTA solution: 1000-fold molar excess of EDTA; for % intact starting species by incubation time: competitor EDTA 1000-fold excess, 37 °C, n = 3
Method: (§1) Determination of the stability of [^89Zr]DFO, [^89Zr]TAFC, and [^89Zr]FSC-RGD conjugates was carried out by incubating the radioligands in PBS, 1000-fold molar excess of EDTA solution with different pH (pH 7 and pH 6; radioligand vs EDTA: 25 μM vs 25 mM) as well as in human serum for 7 days at 37 °C, respectively. At selected time points three aliquots of PBS and EDTA solution were analyzed directly via ITLC, while the three serum aliquots were mixed with 500 μL of CH3CN, vortexed, and centrifuged at 20,000 rcf for 2 min prior to analysis.

[2] = Transchelation study with 1000-fold molar excess of TAFC or DFO (RP-HPLC); assay type: physicochemical; conditions: for % intact starting species by incubation time: RT, n = 3
Method: [^89Zr]DFO and [^89Zr]TAFC (50 μL each) were mixed with a 1000-fold molar excess of either TAFC or DFO for 7 days at RT. At selected time points aliquots of the solutions were analyzed directly via RP-HPLC. ([^89Zr]DFO tR = 4.8 min; [^89Zr]TAFC tR = 5.9 min). The transchelation was determined by the ratio of [^89Zr]DFO and [^89Zr]TAFC. Three replicates were analyzed for each radioligand.

[3] = Stability assay in PBS and human serum; assay type: physicochemical; conditions: period of 7 days, 37 °C; no demetalation was observed
Method: as §1

[4] = Biodistribution of [^89Zr]TAFC in healthy mice; assay type: in vivo, BALB/c mice; conditions: normal mice, i.v., 6 h p.i., n = 4
Method: For the evaluation of biodistribution, four healthy female BALB/c mice (Charles River Laboratories, Sulzfeld, GER) were intravenously injected with [^89Zr]TAFC (∼1.5 MBq/mouse, ∼4 μg of precursor) into the tail vein and sacrificed at 6 h postinjection (p.i.). For the evaluation of tumor uptake of [^89Zr]FSC(succ-RGD)3 female, athymic BALB/c nude mice (Charles River Laboratories) were used. For the induction of tumor xenografts mice were injected subcutaneously with 5 × 10^6 αvβ3 integrin positive M21 cells into the right hind limb and with 5 × 10^6 αvβ3 integrin negative M21-L cells (negative control) into the left hind limb of the same mouse (n = 4). The tumors were allowed to grow until they had reached a volume of 0.3 to 0.6 cm^3. On the day of the experiment [^89Zr]FSC(succ-RGD)3 (∼0.5 MBq/mouse, ∼0.5 μg of peptide) was intravenously injected in the lateral tail vein. Mice were sacrificed by cervical dislocation at 1, 2, and 4 h after injection. Organs (spleen, pancreas, stomach, intestine, kidney, liver, heart, and lung), blood, muscle tissue, bone, and tumors were dissected and weighted. As a comparison, four tumor-bearing mice were intravenously injected in the tail vein with [^68Ga]FSC(succ-RGD)3 (∼0.5 MBq/mouse, ∼0.5 μg of precursor) and sacrificed at 1 h p.i. Activity of the different samples was measured in the gamma counter. Results were expressed as percentage of injected dose per gram tissue (% ID/g).

[5] = Distribution coefficient (logD), octanol/PBS; conditions: pH 7.4
[6] = Protein binding assay in fresh human serum (size exclusion spin column); conditions: 37 °C, incubation time 168 h

transchelation in EDTA solution ([1]; pH 7, after 7 days, ITLC)	% intact starting species by incubation time ([1]; pH 6, 1 h) [%]	% intact starting species by incubation time ([1]; pH 6, 4 h) [%]	% intact starting species by incubation time ([1]; pH 6, 1 d) [%]	% intact starting species by incubation time ([1]; pH 6, 3 d) [%]	% intact starting species by incubation time ([1]; pH 6, 5 d) [%]	% intact starting species by incubation time ([1]; pH 7, 1 h) [%]	% intact starting species by incubation time ([1]; pH 7, 4 h) [%]	% intact starting species by incubation time ([1]; pH 7, 1 d) [%]	% intact starting species by incubation time ([1]; pH 7, 3 d) [%]	% intact starting species by incubation time ([1]; pH 7, 5 d) [%]	% intact starting species by incubation time ([1]; pH 7, 7 d) [%]	stability in PBS and human serum [3]	logD [5]	protein binding (%) [6] [%]	SMILES	other results
no transchelation	99.0 ± 0.1	98.1 ± 0.2	96.0 ± 0.6	94.7 ± 0.3	95.9 ± 0.3	99.6 ± 0.1	99.6 ± 0.1	99.3 ± 0.2	96.9 ± 0.3	98.3 ± 0.1	97.2 ± 0.2	high stability	-2	6.8 ± 0.5	CC(=O)NC1CCCN(O)C(=O)/C=C(/C)CCOC(=O)C(NC(C)=O)CCCN(O)C(=O)/C=C(/C)CCOC(=O)C(NC(C)=O)CCCN(O)C(=O)/C=C(/C)CCOC1=O (centres unmarked) [[^89Zr]TAFC, triacetylfusarinine C, metal not drawn]	transchelation in an EDTA challenging experiment ([1]; after 7 days): 3–5%; % intact starting species by incubation time ([1]; pH 6, 7 d): 94.4 ± 0.5%; % intact starting species by incubation time ([2]; competitor DFO 1000-fold excess, pH 6, 1 h): 96.7 ± 0.2%; % intact starting species by incubation time ([2]; competitor DFO 1000-fold excess, pH 6, 4 h): 91.9 ± 0.3%; % intact starting species by incubation time ([2]; competitor DFO 1000-fold excess, pH 6, 1 d): 74.2 ± 3.0%; % intact starting species by incubation time ([2]; competitor DFO 1000-fold excess, pH 6, 3 d): 53.0 ± 4.1%; % intact starting species by incubation time ([2]; competitor DFO 1000-fold excess, pH 6, 5 d): 43.3 ± 3.5%; % intact starting species by incubation time ([2]; competitor DFO 1000-fold excess, pH 6, 7 d): 40% and 39.8 ± 2.0%; blood activity [4]: 0.05 ± 0.01 % ID/g; renal retention (kidney) [4]: 0.86 ± 0.48 % ID/g; uptake of bone [4]: 0.04 ± 0.02 % ID/g
~60%	94.6 ± 0.4	63.5 ± 3.6	38.2 ± 8.4	6.4 ± 2.0	6.0 ± 1.8	95.5 ± 0.5	76.0 ± 1.0	55.4 ± 3.2	41.0 ± 5.2	43.3 ± 2.5	42.2 ± 2.3	high stability	-3	8.7 ± 1.0	CC(=O)N(O)CCCCCNC(=O)CCC(=O)N(O)CCCCCNC(=O)CCC(=O)N(O)CCCCCN [[^89Zr]DFO, desferrioxamine B, metal not drawn, reference compound]	transchelation in EDTA solution ([1]; pH 6, after 3 days): more than 90%; % intact starting species by incubation time ([2]; competitor TAFC 1000-fold excess, pH 6, 1 h): 0.0 ± 0.0%; fraction transchelated in 1000-fold molar excess of TAFC ([2]; within 1 h): 100%
